{"source": "paper PMC9154192", "about": "(PLoS Biology, 2022)", "type_in_all_cases": "cell-based, Mycobacterium tuberculosis", "key": {"[1]": {"test_system": "PP1S-resistant M. tuberculosis"}, "[2]": {"test_system": "PP2S-resistant M. tuberculosis"}, "[3]": {"test_system": "M. tuberculosis H37Rv", "settings": "at 200 μg/ml and above"}}}
{"smiles": "CC[C@@H](CO)NCCN[C@@H](CC)CO", "note": "[EMB, ethambutol]", "values": [{"measurement": "MIC", "setting": "[1]", "result": 1.6, "unit": "µg/mL"}, {"measurement": "MIC", "setting": "[2]", "result": 1.6, "unit": "µg/mL"}]}
{"smiles": "NNC(=O)c1ccncc1", "note": "[INH, isoniazid, reference compound]", "values": [{"measurement": "MIC", "setting": "[1]", "result": 0.2, "unit": "µg/mL"}, {"measurement": "MIC", "setting": "[2]", "result": 0.4, "unit": "µg/mL"}]}
{"smiles": "COC(=O)[C@@H]1CCC(=O)N1Cc1cc2ccc(OC)cc2c2cc(OC)c(OC)cc12", "note": "[PP1S, (S)-N-[(2,3,6-Trimethoxy-10-phenanthryl)methyl]-pyroglutamic acid methyl ester]", "values": [{"measurement": "MIC", "setting": "[1]", "result": "> 100", "unit": "µg/mL"}, {"measurement": "MIC", "setting": "[2]", "result": "> 100", "unit": "µg/mL"}]}
{"smiles": "CCCCOc1ccc2cc(CN3C(=O)CC[C@H]3C(=O)OC)c3cc(OC)c(OC)cc3c2c1", "note": "[PP2S, Methyl (S)-1-((3-butoxy-6,7-dimethoxyphenanthren-9-yl)methyl)-5-oxopyrrolidine-2-carboxylate]", "values": [{"measurement": "occurrence of resistant strains", "setting": "[3]", "result": "did not occur directly"}, {"measurement": "MIC", "setting": "[1]", "result": "> 100", "unit": "µg/mL"}, {"measurement": "MIC", "setting": "[2]", "result": "> 100", "unit": "µg/mL"}]}
{"smiles": "COC(=O)[C@@H]1CCC(=O)N1Cc1cc2ccc(OCc3ccccc3)cc2c2cc(OC)c(OC)cc12", "note": "[PP3S, Methyl (S)-1-{[3-(Benzyloxy)-6,7-dimethoxy-9-phenanthryl]methyl}-5-oxopyrrolidine-2-carboxylate]", "values": [{"measurement": "MIC", "setting": "[1]", "result": "> 100", "unit": "µg/mL"}, {"measurement": "MIC", "setting": "[2]", "result": "> 100", "unit": "µg/mL"}]}
{"smiles": "NC(=O)c1cnccn1", "note": "[PZA, pyrazinamide]", "values": [{"measurement": "MIC", "setting": "[1]", "result": "> 100", "unit": "µg/mL"}, {"measurement": "MIC", "setting": "[2]", "result": "> 100", "unit": "µg/mL"}]}
{"smiles": "CO[C@H]1/C=C/O[C@@]2(C)Oc3c(C)c(O)c4c(O)c(c(/C=N/N5CCN(C)CC5)c(O)c4c3C2=O)NC(=O)/C(C)=C\\C=C\\[C@H](C)[C@H](O)[C@@H](C)[C@@H](O)[C@@H](C)[C@H](OC(C)=O)[C@@H]1C", "note": "[RIF, rifampicin, reference compound]", "values": [{"measurement": "MIC", "setting": "[1]", "result": 0.1, "unit": "µg/mL"}, {"measurement": "MIC", "setting": "[2]", "result": 0.2, "unit": "µg/mL"}]}
{"smiles": "[H]/N=C(/N)N[C@H]1[C@H](O)[C@@H](O)[C@H](O[C@@H]2O[C@@H](C)[C@](O)(C=O)[C@H]2O[C@@H]2O[C@@H](CO)[C@H](O)[C@@H](O)[C@@H]2NC)[C@@H](N/C(N)=N\\[H])[C@@H]1O", "note": "[STR, streptomycin]", "values": [{"measurement": "MIC", "setting": "[1]", "result": 0.2, "unit": "µg/mL"}, {"measurement": "MIC", "setting": "[2]", "result": 0.4, "unit": "µg/mL"}]}
